Experiments:
[1] = micellar particle size and polydispersity index (ZetaSizer, dynamic light scattering) of drug formulations at different dilutions; format: physicochemical
Method: The particle size of the micelles in the composition is typically in the range of about 5 to about 150 nm. The particle size may be determined e.g. using Dynamic Light Scattering (DLS) in 0.9% NaCl at 1 mg/mL drug concentration, preferably using a red laser with a wavelength of 633 nm.
Micellar size was measured using a ZetaSizer from Malvern Panalytical. […]
20 mg of example 1 was dispensed into a 25 mL round bottom flask and dissolved in methanol (3 mL). 800 μL of a stock solution of docetaxel in methanol (5 mg/mL) was added. The solution was evaporated to dryness in a rotary evaporator. Final drying was performed in a desiccator to remove residual solvent. Hydration of the dried film was performed by adding water for injection (1.0 mL) to a concentration of 4 mg/mL of docetaxel. The 4 mg/mL concentration was further diluted with 0.9% sodium chloride according to the table below. […]
A serial dilution was performed for the system docetaxel:compound 1. A stock solution of docetaxel in methanol was mixed with a stock solution of the micelle forming agent (compound 1) in a round bottom flask at a weight ratio of 1:5. The mixture was evaporated to dryness in a rotary evaporator. Final drying was performed in a desiccator to remove residual solvent. Hydration of the dried film was performed by adding water for injection (1.0 mL) to a concentration of 1 mg/mL of docetaxel. The resulting solution was filtered through a 0.22 μm sterile filter and further diluted with 0.9% sodium chloride solution.
4.5 mg of compound 1 was dispensed into a 25 mL round bottom flask and dissolved in methanol (2 mL). 1500 μL of a stock solution of cabazitaxel in methanol (1.00 mg/mL) was added. The solution was evaporated to dryness in a rotary evaporator. Final drying was performed in a desiccator to remove residual solvent. […]

[2] = drug loading capacity (ratio of amount API:(API+excipient)); format: physicochemical
Method: The solution was evaporated to dryness in a rotary evaporator. Final drying was performed in a desiccator to remove residual solvent. Hydration of the dried film was performed by adding water for injection (1.2 mL). […] Drug loading capacity is defined as the ratio of amount API:(API+excipient).
20 mg of example 1 was dispensed into a 25 mL round bottom flask and dissolved in methanol (3 mL). 800 μL of a stock solution of docetaxel in methanol (5 mg/mL) was added. The solution was evaporated to dryness in a rotary evaporator. Final drying was performed in a desiccator to remove residual solvent. Hydration of the dried film was performed by adding water for injection (1.0 mL) to a concentration of 4 mg/mL of docetaxel. The 4 mg/mL concentration was further diluted with 0.9% sodium chloride according to the table below.
(§1) 11 mg of example 1 was dispensed into a 25 mL round bottom flask and dissolved in methanol (2 mL). 740 μL of a stock solution of docetaxel in methanol (4.96 mg/mL) was added. The solution was evaporated to dryness in a rotary evaporator. Final drying was performed in a desiccator to remove residual solvent.
(§2) 4.5 mg of compound 1 was dispensed into a 25 mL round bottom flask and dissolved in methanol (2 mL). 1500 μL of a stock solution of cabazitaxel in methanol (1.00 mg/mL) was added. The solution was evaporated to dryness in a rotary evaporator. Final drying was performed in a desiccator to remove residual solvent.
as §2, with “cyclosporin” for “cabazitaxel”
4.0 mg of compound 2 was dispensed into a 25 mL round bottom flask and dissolved in methanol (3 mL). 250 μL of a stock solution of docetaxel in methanol (5 mg/mL) was added. The solution was evaporated to dryness in a rotary evaporator. Final drying was performed in a desiccator to remove residual solvent. Hydration of the dried film was performed by adding water for injection (1.25 mL). […]
as §1, with “4.5” for “11”, “compound 3” for “example 1”, “(3” for “(2”, “305” for “740”
as §1, with “4.5” for “11”, “compound 3” for “example 1”, “(3” for “(2”, “[…]” for “740”

[3] = micelles with docetaxel, ratio 2:1, 0.9% NaCl, docetaxel conc. 0.25 mg/mL
[4] = micelles with docetaxel, ratio 2:1, 0.9% NaCl, docetaxel conc. 0.5 mg/mL
[5] = micelles with docetaxel, ratio 2:1, 0.9% NaCl, docetaxel conc. 1 mg/mL
[6] = micelles with docetaxel, ratio 3:1, 0.9% NaCl, docetaxel conc. 0.25 mg/mL
[7] = micelles with docetaxel, ratio 3:1, 0.9% NaCl, docetaxel conc. 0.5 mg/mL
[8] = micelles with docetaxel, ratio 3:1, 0.9% NaCl, docetaxel conc. 1 mg/mL
[9] = docetaxel, ratio 3:1, docetaxel conc. 1 mg/mL
[10] = micelles with cabazitaxel, ratio 3:1, 0.9% NaCl, cabazitaxel conc. 0.25 mg/mL
[11] = micelles with cabazitaxel, ratio 3:1, 0.9% NaCl, cabazitaxel conc. 0.5 mg/mL
[12] = micelles with cabazitaxel, ratio 3:1, 0.9% NaCl, cabazitaxel conc. 1 mg/mL
[13] = micelles with cyclosporin, ratio 3:1, 0.9% NaCl, cyclosporin conc. 0.25 mg/mL
[14] = micelles with cyclosporin, ratio 3:1, 0.9% NaCl, cyclosporin conc. 0.5 mg/mL
[15] = micelles with cyclosporin, ratio 3:1, 0.9% NaCl, cyclosporin conc. 1 mg/mL
[16] = micelles with docetaxel, ratio 5:1, docetaxel conc. 0.25 mg/mL
[17] = micelles with docetaxel, ratio 5:1, docetaxel conc. 0.5 mg/mL
[18] = micelles with docetaxel, ratio 5:1, docetaxel conc. 1 mg/mL
[19] = micelles with docetaxel, 1.2 mg docetaxel + 3.8 mg compound, water 1.2 mL + 0.9% NaCl 1.0 mL
[20] = serial dilution, docetaxel:compound 1:5, compound conc. 0.08 mM
[21] = serial dilution, docetaxel:compound 1:5, compound conc. 0.12 mM
[22] = serial dilution, docetaxel:compound 1:5, compound conc. 0.15 mM
[23] = serial dilution, docetaxel:compound 1:5, compound conc. 0.3 mM
[24] = serial dilution, docetaxel:compound 1:5, compound conc. 0.6 mM
[25] = serial dilution, docetaxel:compound 1:5, compound conc. 1.2 mM
[26] = serial dilution, docetaxel:compound 1:5, compound conc. 2.4 mM
[27] = serial dilution, docetaxel:compound 1:5, compound conc. 4.8 mM

COc1cc(C)c(/C=C/C(C)=C/C=C/C(C)=C/C(=O)N(C)CCS(=O)(=O)[O-])c(C)c1C.[Na+] [Compound 3]
Particle size [1, 3]: 14.0 nm
Polydispersity index [1, 3]: 0.53
Particle size [1, 4]: 19.9 nm
Polydispersity index [1, 4]: 0.76
Particle size [1, 5]: 13.5 nm
Polydispersity index [1, 5]: 0.52
Particle size [1, 6]: 11.8 nm
Polydispersity index [1, 6]: 0.27
Particle size [1, 7]: 11.3 nm
Polydispersity index [1, 7]: 0.25
Particle size [1, 8]: 9.30 nm
Polydispersity index [1, 8]: 0.33
Drug loading capacity ([2]; docetaxel, ratio 2:1, docetaxel conc. 0.25 mg/mL): 25%
Drug loading capacity ([2]; docetaxel, ratio 2:1, docetaxel conc. 0.5 mg/mL): 25%
Drug loading capacity ([2]; docetaxel, ratio 2:1, docetaxel conc. 1 mg/mL): 25%
Drug loading capacity ([2]; docetaxel, ratio 3:1, docetaxel conc. 0.25 mg/mL): 25%
Drug loading capacity ([2]; docetaxel, ratio 3:1, docetaxel conc. 0.5 mg/mL): 25%
Drug loading capacity [2, 9]: 25%

COc1cc(C)c(/C=C/C(C)=C/C=C/C(C)=C/C(=O)N(CCS(=O)(=O)[O-])C2CCCCC2)c(C)c1C.[Na+] [Compound 1]
trend of micellar size and RSD during dilution ([1]; docetaxel:compound 1:5, serial dilution with 0.9% NaCl): The micellar size and RSD showed no significant trend during dilution
Particle size [1, 10]: 121.2 nm
Polydispersity index [1, 10]: 0.079
Particle size [1, 11]: 111.2 nm
Polydispersity index [1, 11]: 0.102
Particle size [1, 12]: 87.6 nm
Polydispersity index [1, 12]: 0.145
Particle size [1, 13]: 60.1 nm
Polydispersity index [1, 13]: 0.258
Particle size [1, 14]: 53.3 nm
Polydispersity index [1, 14]: 0.293
Particle size [1, 15]: 41.7 nm
Polydispersity index [1, 15]: 0.212
Particle size [1, 6]: 56.0 nm
Polydispersity index [1, 6]: 0.29
Particle size [1, 7]: 52.6 nm
Polydispersity index [1, 7]: 0.25
Particle size [1, 8]: 47.7 nm
Polydispersity index [1, 8]: 0.24
Particle size [1, 16]: 49.6 nm
Polydispersity index [1, 16]: 0.25
Particle size [1, 17]: 41.5 nm
Polydispersity index [1, 17]: 0.24
Particle size [1, 18]: 29.2 nm
Polydispersity index [1, 18]: 0.24
Particle size [1, 19]: 7.0 nm
Polydispersity index [1, 19]: 0.20
Particle size [1, 20]: 33.73 nm
Polydispersity index, pdi [1, 20]: 0.45
Particle size [1, 21]: 32.72 nm
Polydispersity index, pdi [1, 21]: 0.39
Particle size [1, 22]: 34.06 nm
Polydispersity index, pdi [1, 22]: 0.34
Particle size [1, 23]: 37.85 nm
Polydispersity index, pdi [1, 23]: 0.25
Particle size [1, 24]: 36.53 nm
Polydispersity index, pdi [1, 24]: 0.18
Particle size [1, 25]: 36.5 nm
Polydispersity index, pdi [1, 25]: 0.16
Particle size [1, 26]: 36.2 nm
Polydispersity index, pdi [1, 26]: 0.14
Particle size [1, 27]: 35.4 nm
Polydispersity index, pdi [1, 27]: 0.11
Drug loading capacity ([2]; cabazitaxel, ratio 3:1, cabazitaxel conc. 0.25 mg/mL): 25%
Drug loading capacity ([2]; cabazitaxel, ratio 3:1, cabazitaxel conc. 0.5 mg/mL): 25%
Drug loading capacity ([2]; cabazitaxel, ratio 3:1, cabazitaxel conc. 1 mg/mL): 25%
Drug loading capacity ([2]; cyclosporin, ratio 3:1, cyclosporin conc. 0.25 mg/mL): 25%
Drug loading capacity ([2]; cyclosporin, ratio 3:1, cyclosporin conc. 0.5 mg/mL): 25%
Drug loading capacity ([2]; cyclosporin, ratio 3:1, cyclosporin conc. 1 mg/mL): 25%
Drug loading capacity ([2]; docetaxel 1.2 mg + compound 3.8 mg): 24%
Drug loading capacity [2, 9]: 25%
Drug loading capacity ([2]; docetaxel, ratio 5:1, docetaxel conc. 1 mg/mL): 17%

Reference: patent US20260337156A1, “SOLUBILIZING COMPOUNDS” (Vivesto AB, priority 2022, published 2026)
